Where “and” joins values, the source holds several entries; their conditions need not be identical. Equal values may be shown once. Inconclusive results and toxic doses are left out.
Tested on: CD2F1 mice, L1210 leukemia ip, survival T/C
Test: NCI In Vivo Anticancer Drug Screen. Data for tumor model L1210 Leukemia (intraperitoneal) in CD2F1 (CDF1) mice
Conditions: higher = longer survival
Method in brief: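 Read-out first: treated-group measurement over vehicle-control measurement, expressed as a ratio. Animals bore a transplanted tumor line and were dosed with compound or vehicle.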

[1] = endpoint: mean survival time, dose: 12.5 mg/kg/injection, schedule: Q04DX002 (ip), vehicle: saline with Tween-80
[2] = endpoint: mean survival time, dose: 25.0 mg/kg/injection, schedule: Q04DX002 (ip), vehicle: saline with Tween-80
[3] = endpoint: mean survival time, dose: 100.0 mg/kg/injection, schedule: Q01DX009 (ip), vehicle: saline with Tween-80
[4] = endpoint: mean survival time, dose: 100.0 mg/kg/injection, schedule: Q04DX003 (ip), vehicle: saline with Tween-80
[5] = endpoint: mean survival time, dose: 200.0 mg/kg/injection, schedule: Q01DX009 (ip), vehicle: saline with Tween-80
[6] = endpoint: mean survival time, dose: 200.0 mg/kg/injection, schedule: Q04DX003 (ip), vehicle: saline with Tween-80
[7] = endpoint: mean survival time, dose: 400.0 mg/kg/injection, schedule: Q01DX009 (ip), vehicle: saline with Tween-80
[8] = endpoint: mean survival time, dose: 400.0 mg/kg/injection, schedule: Q04DX003 (ip), vehicle: saline with Tween-80
[9] = endpoint: mean survival time, dose: 100.0 mg/kg/injection, schedule: Q04DX003 (ip), vehicle: other

COc1cc2cc(c1Cl)N(C)C(=O)CC(OC(=O)C(C)N(C)C(=O)C(C)C)C1(C)OC1C(C)C1CC(O)(NC(=O)O1)C(OC)/C=C/C=C(C)C2OC (configuration not stated)
T/C (endpoint: median survival time, dose: 4.0 micrograms/kg/injection, schedule: Q01DX009 (ip), vehicle: Klucel (hydroxypropylcellulose) (HPC)): 104 % of control | T/C (endpoint: median survival time, dose: 8.0 micrograms/kg/injection, schedule: Q01DX009 (ip), vehicle: Klucel (hydroxypropylcellulose) (HPC)): 112 % of control | T/C (endpoint: median survival time, dose: 16.0 micrograms/kg/injection, schedule: Q01DX009 (ip), vehicle: Klucel (hydroxypropylcellulose) (HPC)): 112 % of control | T/C (endpoint: median survival time, dose: 64.0 micrograms/kg/injection, schedule: Q01DX009 (ip), vehicle: Klucel (hydroxypropylcellulose) (HPC)): 105 % of control

NC(CSS(=O)(=O)O)=NCCCCN=C(N)CSS(=O)(=O)O
T/C (endpoint: mean survival time, dose: 6.25 mg/kg/injection, schedule: Q04DX002 (ip), vehicle: saline with Tween-80): 103 % of control | T/C [1]: 106 % of control | T/C [2]: 95 % of control

Cc1c2ccccc2c(C)c2c1cc(C(=O)O)c1ccccc12
T/C (endpoint: mean survival time, dose: 12.5 mg/kg/injection, schedule: Q04DX002 (ip), vehicle: Klucel (hydroxypropylcellulose) (HPC)): 106 % of control | T/C (endpoint: mean survival time, dose: 25.0 mg/kg/injection, schedule: Q04DX002 (ip), vehicle: Klucel (hydroxypropylcellulose) (HPC)): 101 % of control | T/C (endpoint: mean survival time, dose: 50.0 mg/kg/injection, schedule: Q04DX002 (ip), vehicle: Klucel (hydroxypropylcellulose) (HPC)): 106 % of control | T/C (endpoint: mean survival time, dose: 100.0 mg/kg/injection, schedule: Q04DX002 (ip), vehicle: Klucel (hydroxypropylcellulose) (HPC)): 107 % of control | T/C (endpoint: mean survival time, dose: 150.0 mg/kg/injection, schedule: Q04DX002 (ip), vehicle: Klucel (hydroxypropylcellulose) (HPC)): 112 % of control | T/C (endpoint: median survival time, dose: 25.0 mg/kg/injection, schedule: Q01DX009 (ip), vehicle: sodium bicarbonate): 111 % of control | T/C (endpoint: median survival time, dose: 50.0 mg/kg/injection, schedule: Q01DX009 (ip), vehicle: sodium bicarbonate): 115 % of control and 117 % of control | T/C (endpoint: median survival time, dose: 200.0 mg/kg/injection, schedule: Q01DX009 (ip), vehicle: sodium bicarbonate): 122 % of control | T/C (endpoint: median survival time, dose: 400.0 mg/kg/injection, schedule: Q01DX009 (ip), vehicle: sodium bicarbonate): 107 % of control

CC(=O)Nc1c([N+](=O)[O-])cc2c3c(cccc13)CC2
T/C [3]: 102 % of control | T/C [4]: 100 % of control | T/C [5]: 97 % of control | T/C [6]: 102 % of control | T/C [7]: 97 % of control | T/C [8]: 100 % of control

O=C(N/N=C\c1ccc(F)cc1)N/N=C/c1ccc(F)cc1
T/C (endpoint: mean survival time, dose: 12.5 mg/kg/injection, schedule: Q01DX009 (ip), vehicle: saline with Tween-80): 93 % of control | T/C (endpoint: mean survival time, dose: 25.0 mg/kg/injection, schedule: Q01DX009 (ip), vehicle: saline with Tween-80): 91 % of control | T/C (endpoint: mean survival time, dose: 50.0 mg/kg/injection, schedule: Q01DX009 (ip), vehicle: saline with Tween-80): 91 % of control | T/C [5]: 90 % of control | T/C [7]: 90 % of control

COC(=O)C(CCCCN)NS(=O)(=O)c1ccccc1 (configuration not stated)
T/C [3]: 96 % of control | T/C [4]: 109 % of control | T/C [5]: 100 % of control | T/C [6]: 91 % of control | T/C [7]: 96 % of control | T/C [8]: 103 % of control

COC(=N)c1ccc(Cl)cc1
T/C [4]: 97 % of control | T/C [6]: 103 % of control | T/C [8]: 93 % of control

CNC(=O)Nc1ccccc1OS(=O)(=O)N(C)C
T/C [4]: 97 % of control | T/C [6]: 104 % of control | T/C [8]: 104 % of control

COc1cccc2c1C(=O)c1c(O)c3c(c(O)c1C2=O)C[C@](O)(C(=O)CO)CC3OC1CC(N)C(OC2CCCCO2)C(C)O1 (some centres not stated)
T/C (endpoint: median survival time, dose: 3.0 mg/kg/injection, schedule: Q01DX009 (ip), vehicle: water): 123 % of control and 227 % of control | T/C (endpoint: median survival time, dose: 6.0 mg/kg/injection, schedule: Q01DX009 (ip), vehicle: water): 91 % of control

O=C(OCC1OC(n2nc(SCc3ccccc3)c(=O)[nH]c2=O)C(OC(=O)c2ccccc2)C1OC(=O)c1ccccc1)c1ccccc1 (configuration not stated)
T/C (endpoint: mean survival time, dose: 12.5 mg/kg/injection, schedule: Q01DX005 (ip), vehicle: distilled water + Tween-80): 93 % of control | T/C (endpoint: mean survival time, dose: 25.0 mg/kg/injection, schedule: Q01DX005 (ip), vehicle: distilled water + Tween-80): 95 % of control | T/C (endpoint: mean survival time, dose: 50.0 mg/kg/injection, schedule: Q01DX005 (ip), vehicle: distilled water + Tween-80): 97 % of control | T/C (endpoint: mean survival time, dose: 100.0 mg/kg/injection, schedule: Q01DX005 (ip), vehicle: distilled water + Tween-80): 88 % of control

CCCCCCOC(=O)C(O)c1ccccc1 (configuration not stated)
T/C [4]: 103 % of control | T/C [6]: 103 % of control | T/C [8]: 97 % of control

CC(=O)Oc1ccc(/C=N/NC(N)=S)nc1
T/C (endpoint: mean survival time, dose: 37.5 mg/kg/injection, schedule: Q01DX009 (ip), vehicle: saline with Tween-80): 160 % of control | T/C (endpoint: mean survival time, dose: 75.0 mg/kg/injection, schedule: Q01DX009 (ip), vehicle: saline with Tween-80): 152 % of control | T/C (endpoint: mean survival time, dose: 150.0 mg/kg/injection, schedule: Q01DX009 (ip), vehicle: saline with Tween-80): 165 % of control

NC(CSS(=O)(=O)O)=NCCSS(=O)(=O)O
T/C (endpoint: mean survival time, dose: 100.0 mg/kg/injection, schedule: Q04DX003 (ip), vehicle: saline): 97 % of control | T/C (endpoint: mean survival time, dose: 200.0 mg/kg/injection, schedule: Q04DX003 (ip), vehicle: saline): 97 % of control

CC1CC[N-]CC1.CC1CC[N-]CC1.[Cl][Pt+2][Cl]
T/C (endpoint: mean survival time, dose: 6.25 mg/kg/injection, schedule: Q01DX001 (ip), vehicle: saline with Tween-80): 101 % of control | T/C (endpoint: mean survival time, dose: 12.5 mg/kg/injection, schedule: Q01DX001 (ip), vehicle: saline with Tween-80): 111 % of control | T/C (endpoint: mean survival time, dose: 25.0 mg/kg/injection, schedule: Q01DX001 (ip), vehicle: saline with Tween-80): 112 % of control

CN(C)C=Nc1c(Cl)cccc1Cl
T/C (endpoint: mean survival time, dose: 50.0 mg/kg/injection, schedule: Q01DX001 (ip), vehicle: saline): 100 % of control | T/C (endpoint: mean survival time, dose: 100.0 mg/kg/injection, schedule: Q01DX001 (ip), vehicle: saline): 103 % of control | T/C (endpoint: mean survival time, dose: 200.0 mg/kg/injection, schedule: Q01DX001 (ip), vehicle: saline): 97 % of control | T/C (endpoint: mean survival time, dose: 400.0 mg/kg/injection, schedule: Q01DX001 (ip), vehicle: saline): 106 % of control

CC(O)CN=C(N)C(N)=NCC(C)O (configuration not stated)
T/C [1]: 108 % of control | T/C [2]: 101 % of control | T/C (endpoint: mean survival time, dose: 50.0 mg/kg/injection, schedule: Q04DX002 (ip), vehicle: saline with Tween-80): 97 % of control

Nc1nc(=S)c2[nH]c(-c3ccccc3)nc2[nH]1
T/C (endpoint: mean survival time, dose: 12.5 mg/kg/injection, schedule: Q01DX005 (ip), vehicle: other): 96 % of control | T/C (endpoint: mean survival time, dose: 25.0 mg/kg/injection, schedule: Q01DX005 (ip), vehicle: other): 90 % of control | T/C (endpoint: mean survival time, dose: 50.0 mg/kg/injection, schedule: Q01DX005 (ip), vehicle: other): 93 % of control | T/C (endpoint: mean survival time, dose: 100.0 mg/kg/injection, schedule: Q01DX005 (ip), vehicle: other): 93 % of control | T/C (endpoint: mean survival time, dose: 200.0 mg/kg/injection, schedule: Q01DX005 (ip), vehicle: other): 90 % of control

O=C(NCCCl)NC1C(O)OC(CO)C(O)C1O (configuration not stated)
T/C (endpoint: mean survival time, dose: 12.5 mg/kg/injection, schedule: Q01DX009 (ip), vehicle: water): 107 % of control | T/C (endpoint: mean survival time, dose: 25.0 mg/kg/injection, schedule: Q01DX009 (ip), vehicle: water): 107 % of control | T/C (endpoint: mean survival time, dose: 50.0 mg/kg/injection, schedule: Q01DX009 (ip), vehicle: water): 104 % of control | T/C (endpoint: mean survival time, dose: 100.0 mg/kg/injection, schedule: Q01DX009 (ip), vehicle: water): 104 % of control | T/C (endpoint: mean survival time, dose: 200.0 mg/kg/injection, schedule: Q01DX009 (ip), vehicle: water): 105 % of control

Cc1cc(=O)ncn1C
T/C (endpoint: mean survival time, dose: 100.0 mg/kg/injection, schedule: Q04DX002 (ip), vehicle: saline): 101 % of control | T/C (endpoint: mean survival time, dose: 200.0 mg/kg/injection, schedule: Q04DX002 (ip), vehicle: saline): 97 % of control | T/C (endpoint: mean survival time, dose: 400.0 mg/kg/injection, schedule: Q04DX002 (ip), vehicle: saline): 101 % of control

O=C1/C(=C/c2ccc(Cl)cc2Cl)CCC/C1=C\c1ccc(Cl)cc1Cl
T/C [3]: 87 % of control

NC(=S)Nc1ccc([N+](=O)[O-])cc1
T/C (endpoint: mean survival time, dose: 25.0 mg/kg/injection, schedule: Q04DX003 (ip), vehicle: other): 96 % of control | T/C (endpoint: mean survival time, dose: 50.0 mg/kg/injection, schedule: Q04DX003 (ip), vehicle: other): 91 % of control | T/C [9]: 88 % of control and 95 % of control

CS/C(N)=N\S(=O)(=O)c1ccc(NC(C)=O)cc1
T/C [3]: 98 % of control | T/C [5]: 95 % of control | T/C [7]: 106 % of control

Cc1c2ccccc2c(CN2CC(O)CC2C(=O)O)c2ccc3ccccc3c12 (configuration not stated)
T/C [4]: 102 % of control | T/C [6]: 100 % of control | T/C [8]: 87 % of control

CC(=O)OC(c1ccc([N+](=O)[O-])cc1)c1ccccn1 (configuration not stated)
T/C [9]: 96 % of control | T/C (endpoint: mean survival time, dose: 200.0 mg/kg/injection, schedule: Q04DX003 (ip), vehicle: other): 93 % of control | T/C (endpoint: mean survival time, dose: 400.0 mg/kg/injection, schedule: Q04DX003 (ip), vehicle: other): 93 % of control

Cc1ccc(SCc2c(COc3ccc(Cl)cc3)sc3ccc(Cl)cc23)cc1
T/C [4]: 92 % of control | T/C [6]: 92 % of control | T/C [8]: 94 % of control

— PubChem BioAssay AID256 (DTP/NCI, 2004)
